{"source": "paper PMC12393501", "about": "“Recruitment of Mre11 to recombination sites during meiosis” (Research Square, 2025)", "key": {"[1]": {"system": "vegetative yeast cells expressing myc-tagged Mre11", "experiment": "Immunofluorescence of MMS-induced Mre11-myc foci, vegetative nuclear spreads", "type": "cell-based, Saccharomyces cerevisiae", "conditions": "5% 1,6-hexanediol, 4–5 minutes, vegetative spheroplasts", "protocol": "(§1) Following standard protocols, strains were patched on YPG plates, mated and streaked on YPD plates, and selected diploid colonies grown in liquid YPD at 30°C, 250 rpm, overnight. For meiotic synchronization, diploid cultures grown overnight in YPD were transferred to YPA (1% yeast extract, 2% peptone, 1% potassium acetate) at OD600 0.2 and grown for 12–14 hours at 30°C, 250 rpm. […]\n(§2) Slides were blocked with 90% FBS, 1× PBS for 1 hour at room temperature in a humid chamber and then incubated with primary antibody (mouse mAb anti-myc, 1:200 (2276S, Cell Signaling Technology), rabbit anti-phospho H2A-S129, 1:200 (ab15083, abcam)) diluted in 3% BSA, 1× PBS in a humid chamber for 2 hours at 37°C or overnight at 4°C. Slides were washed three times with 1× PBS in a Coplin jar, were incubated with secondary antibody (goat anti-mouse IgG Alexa Fluor™ Plus 488, 1:200 (A32723, Invitrogen), donkey anti-rabbit IgG Alexa Fluor™ 546, 1:200 (A10040, Invitrogen) diluted in 3% BSA, 1× PBS in a humid chamber at 37°C for 1 hour. Slides were washed in the dark three times for 5 mins with 1× PBS, mounted with Vectashield containing DAPI (Vector Labs). Images were captured on a Zeiss Axio Observer with a 100×/1.4 NA oil immersion objective and were analyzed in ImageJ."}, "[2]": {"system": "meiotic yeast cells expressing myc-tagged Mre11", "experiment": "Immunofluorescence of Mre11-myc foci, meiotic nuclear spreads", "type": "cell-based, Saccharomyces cerevisiae", "conditions": "5% 1,6-hexanediol, brief exposure, 4 hours after transfer to SPM", "protocol": "as §1, §2"}, "Mer2 [3]": {"system": "Mer2", "experiment": "Colocalization of Mre11 with Mer2 condensates in vitro", "type": "binding, Saccharomyces cerevisiae", "protocol": "Proteins were diluted to a 10× stock of their appropriate working concentrations in their respective storage buffers. […] Unless specified otherwise, all reactions contained 400 nM ^Alexa488Mre11 or 100 nM ^eGFPMRX. A typical 20 μL binding reaction contained 2 μL protein of 10× stock of indicated concentration, 10 μL of 2× reaction buffer, and 150 ng of supercoiled pUC19 (5.7 nM). Typical reactions were assembled at 30°C for 30 mins with gentle mixing every 5 mins, unless mentioned otherwise. 5 μL was dropped onto a microscope slide and covered with a coverslip. All images were captured on a Zeiss Axio Observer with a 100×/1.4 NA oil immersion objective except for images provided in Figure 4G which were captured on Leica Stellaris DMI 8 confocal microscope with a 63x/1.2 NA water immersion objective. Images were analyzed with ImageJ using a custom-made script. In brief, 129.24 × 129.24-μm (2048 × 2048-pixel) images were thresholded to mean intensity of the background plus three times the standard deviation of the background. Masked foci were counted and the intensity inside the focus mask was integrated. Data points represent averages of at least 8–10 images per sample. Data were analyzed using Graphpad Prism 10.4.0."}, "mre11-ΔIDR mutants": {"system": "mre11-ΔIDR mutants", "experiment": "MMS and CPT sensitivity assay, mre11-ΔIDR", "type": "cell-based, Saccharomyces cerevisiae", "conditions": "ten-fold serial dilutions on YPD plates, two days at 30°C", "protocol": "(§3) Following standard protocols, strains were patched on YPG plates, mated and streaked on YPD plates, and selected diploid colonies grown in liquid YPD at 30°C, 250 rpm, overnight. For meiotic synchronization, diploid cultures grown overnight in YPD were transferred to YPA (1% yeast extract, 2% peptone, 1% potassium acetate) at OD600 0.2 and grown for 12–14 hours at 30°C, 250 rpm. Once the cultures reached OD600 between 1.2–1.6, cells were washed once with prewarmed sterile water and immediately transferred to sporulation medium supplemented with amino acids (320 μL amino acid complementation media for 100 mL of sporulation media (SPM)) and were kept shaking at 30°C, 250 rpm during the entire meiotic time-course. For MMS and CPT (Sigma) sensitivity assays, serial dilutions of overnight cultures were spotted on freshly prepared YPD-MMS or YPD-CPT plates containing indicated percentage of MMS or CPT, respectively. Plates were grown for two days at 30°C. For immunofluorescence of vegetatively growing cells, overnight cultures were refreshed by diluting to OD600 0.2 and grown for 3–4 hours to reach OD600 1.2–1.4 before subjecting to MMS or MMS followed by 5% 1,6-hexanediol treatment. For 5% 1,6-hexanediol treatment, cells were first converted to spheroplasts and then treated with 5% 1,6-hexanediol for 4–5 minutes. […]"}, "mre11-ΔC49 mutant": {"system": "mre11-ΔC49 mutant", "experiment": "MMS and CPT sensitivity assay, mre11-ΔC49", "type": "cell-based, Saccharomyces cerevisiae", "conditions": "ten-fold serial dilutions on YPD plates, two days at 30°C", "protocol": "as §3"}, "pUC19 plasmid DNA [4]": {"system": "pUC19 plasmid DNA", "experiment": "In vitro condensation assay, MRX complex", "protocol": "(§4) Proteins were diluted to a 10× stock of their appropriate working concentrations in their respective storage buffers. Reactions were performed in a buffer containing 25 mM HEPES-HCl (pH 7.5), 2 mM DTT, 1 mg/ml BSA, 5% glycerol, 5 mM MgCl2, 5% PEG-3350, and NaCl. Considering the salt contributed by the protein dilution buffer, final concentration of NaCl in a reaction was adjusted to 120 mM. Unless specified otherwise, all reactions contained 400 nM ^Alexa488Mre11 or 100 nM ^eGFPMRX. A typical 20 μL binding reaction contained 2 μL protein of 10× stock of indicated concentration, 10 μL of 2× reaction buffer, and 150 ng of supercoiled pUC19 (5.7 nM). Typical reactions were assembled at 30°C for 30 mins with gentle mixing every 5 mins, unless mentioned otherwise. 5 μL was dropped onto a microscope slide and covered with a coverslip. All images were captured on a Zeiss Axio Observer with a 100×/1.4 NA oil immersion objective except for images provided in Figure 4G which were captured on Leica Stellaris DMI 8 confocal microscope with a 63x/1.2 NA water immersion objective. Images were analyzed with ImageJ using a custom-made script. In brief, 129.24 × 129.24-μm (2048 × 2048-pixel) images were thresholded to mean intensity of the background plus three times the standard deviation of the background. Masked foci were counted and the intensity inside the focus mask was integrated. Data points represent averages of at least 8–10 images per sample. Data were analyzed using Graphpad Prism 10.4.0."}, "pUC19 plasmid DNA [5]": {"system": "pUC19 plasmid DNA", "experiment": "In vitro condensation assay, Mre11", "conditions": "for Condensate formation: in the presence of plasmid DNA (pUC19), pH 7.5, 120 mM NaCl, 30°C, fluorescence microscopy", "protocol": "as §4"}, "pUC19 plasmid": {"system": "pUC19 plasmid", "experiment": "Gel shift assay DNA binding", "conditions": "1 nM pUC19, pH 7.5, 100 mM NaCl, 5 mM EDTA, 30°C for 30 mins", "protocol": "Proteins were diluted to their appropriate working concentrations in their respective storage buffers. […] Reactions were assembled at 30°C for 30 mins and resolved in a 1% agarose (SeaKem LE Agarose, Lonza) at 60 V for 120 mins at 4°C. Gels were stained with SYBR Gold Nucleic Acid Gel Stain (S11497, Invitrogen) for 40 mins and visualized with Amersham Typhoon biomolecular imager (Cytiva)."}, "Mer2 [6]": {"system": "Mer2", "experiment": "Yeast two-hybrid Mer2-Mre11 interaction", "type": "binding, Saccharomyces cerevisiae", "conditions": "SC-Leu-Ura-His + 25 mM 3-AT, 4–5 days at 30°C; at least four independent transformants", "protocol": "Bait and prey plasmids were co-transformed into yWL365 using the standard ‘LiAc’-based transformation and plated on SC-Leu-Ura selective media. At least four independent transformants were tested for Mer2-Mre11 interaction by spotting a dilution series on SC-Leu- Ura-His + 25 mM 3-AT (3-amino-1,2,4-triazole) and growing for 4–5 days at 30°C."}}, "note": "Ends that are not written are not given here.", "data": [{"molecule": "OCCCCCCO", "note": "[1,6-hexanediol]", "values": [{"measurement": "Effect on MMS-induced Mre11 foci", "setting": "[1]", "result": "readily dissolved MMS-induced foci, which instead coalesced into a few aggregates of high intensity"}, {"measurement": "Effect on meiotic Mre11 foci", "setting": "[2]", "result": "disassembles these foci"}]}, {"molecule": "C-terminus of Mre11: mScarlet-labelled Mre11-C49 (SYGLLNGRKTKTKTRPAASTKTASRRGKGRASRTPKTDILGSLLAKKRK; also: mScarlet tag; UniProt P32829 644-692, looked up, fragment)", "values": [{"measurement": "Condensate formation of the C-terminus without Mer2", "setting": "Mer2 [3]; 800 nM mScarlet-Mre11-C49, control lacking eGFP-Mer2", "result": "does not form condensates independently"}, {"measurement": "Localization in the presence of Mer2 condensates", "setting": "Mer2 [3]; 800 nM mScarlet-Mre11-C49 and 200 nM eGFP-Mer2, 30 minutes", "result": "forms a halo-like structure around Mer2 condensates"}]}, {"molecule": "CC[C@@]1(O)C(=O)OCc2c1cc1n(c2=O)Cc2cc3ccccc3nc2-1", "note": "[CPT, camptothecin]", "values": [{"measurement": "Sensitivity of mre11-ΔIDR mutants relative to wild type", "setting": "mre11-ΔIDR mutants", "result": "as resistant to MMS or CPT as wild-type cells"}, {"measurement": "Sensitivity of mre11-ΔC49 mutant to treatment", "setting": "mre11-ΔC49 mutant", "result": "resistant"}]}, {"molecule": "MRX: Mre11-Rad50-Xrs2 complex with an eGFP tag at the N-terminus of Mre11", "values": [{"measurement": "Effect of crowding agents on condensation", "setting": "pUC19 plasmid DNA [4]; 5% PEG-3350", "result": "promoted"}, {"measurement": "Role of the Mre11 C-terminal extremity in focus formation of MRX", "setting": "pUC19 plasmid DNA [4]; eGFP-tagged MRX, ΔC49", "result": "required for efficient focus formation"}, {"measurement": "Condensate formation", "setting": "pUC19 plasmid DNA [4]; in the presence of plasmid DNA (pUC19), pH 7.5, 120 mM NaCl, 30°C, fluorescence microscopy", "result": "form large clusters visible by fluorescence microscopy"}]}, {"molecule": "Mre11: Alexa488-labeled or eGFP-tagged budding yeast Mre11 nuclease", "values": [{"measurement": "Effect of crowding agents on condensation", "setting": "pUC19 plasmid DNA [5]; 5% PEG-3350", "result": "promoted"}, {"measurement": "Effect of divalent metal ions on condensation", "setting": "pUC19 plasmid DNA [5]; divalent metal ions", "result": "enhanced"}, {"measurement": "Condensate formation", "setting": "pUC19 plasmid DNA [5]", "result": "form large clusters visible by fluorescence microscopy"}, {"measurement": "Concentration above which foci intensity increases steeply", "setting": "pUC19 plasmid DNA [5]; protein titration, pUC19 DNA", "result": "above 200 nM"}, {"measurement": "Colocalization with Mer2", "setting": "Mer2 [3]; 200 nM Alexa594-Mer2 and eGFP-Mre11 assembled separately 10 minutes, then mixed 1:1 for 30 minutes", "result": "nearly absolute colocalization"}, {"measurement": "Species of reduced electrophoretic mobility at higher protein concentration", "setting": "pUC19 plasmid", "result": "formed complexes of reduced mobility at higher protein concentration"}]}, {"molecule": "COS(C)(=O)=O", "note": "[MMS, methylmethanesulfonate]", "values": [{"measurement": "Sensitivity of mre11-ΔIDR mutants relative to wild type", "setting": "mre11-ΔIDR mutants", "result": "as resistant to MMS or CPT as wild-type cells"}, {"measurement": "Sensitivity of mre11-ΔC49 mutant to treatment", "setting": "mre11-ΔC49 mutant", "result": "resistant"}]}, {"molecule": "Mre11^IDR: purified eGFP-tagged Mre11 IDR alone (protein, UniProt P32829 524-677, looked up, fragment, IDR eGFP tag, purified eGFP-tagged Mre11 IDR alone) NSVRPTPPKENDETNFAFNGNGLDSFRSSNREVRTGSPDITQSHVDNESRITHISQAESSKPTSKPKRVRTATKKKIPAFSDSTVISDAENELGDNNDAQDDVDIDENDIIMVSTDEEDASYGLLNGRKTKTKTRPAASTKTASRRGKGRASRT", "values": [{"measurement": "Condensate formation", "setting": "pUC19 plasmid DNA [5]", "result": "failed to form condensates"}, {"measurement": "DNA binding compared to the WT or Mre11-ΔIDR", "setting": "pUC19 plasmid", "result": "reduced DNA binding"}]}, {"molecule": "truncation of the terminal 15 amino acids of Mre11: Mre11 lacking the terminal 15 amino acids (pGAD-C1-Mre11-ΔC15) (protein, left off: Gal4 activation domain (from the vector pGAD-C1), end not stated, kept) MDYPDPDTIRILITTDNHVGYNENDPITGDDSWKTFHEVMMLAKNNNVDMVVQSGDLFHVNKPSKKSLYQVLKTLRLCCMGDKPCELELLSDPSQVFHYDEFTNVNYEDPNFNISIPVFGISGNHDDASGDSLLCPMDILHATGLINHFGKVIESDKIKVVPLLFQKGSTKLALYGLAAVRDERLFRTFKDGGVTFEVPTMREGEWFNLMCVHQNHTGHTNTAFLPEQFLPDFLDMVIWGHEHECIPNLVHNPIKNFDVLQPGSSVATSLCEAEAQPKYVFILDIKYGEAPKMTPIPLETIRTFKMKSISLQDVPHLRPHDKDATSKYLIEQVEEMIRDANEETKQKLADDGEGDMVAELPKPLIRLRVDYSAPSNTQSPIDYQVENPRRFSNRFVGRVANGNNVVQFYKKRSPVTRSKKSGINGTSISDRDVEKLFSESGGELEVQTLVNDLLNKMQLSLLPEVGLNEAVKKFVDKDEKTALKEFISHEISNEVGILSTNEEFLRTDDAEEMKALIKQVKRANSVRPTPPKENDETNFAFNGNGLDSFRSSNREVRTGSPDITQSHVDNESRITHISQAESSKPTSKPKRVRTATKKKIPAFSDSTVISDAENELGDNNDAQDDVDIDENDIIMVSTDEEDASYGLLNGRKTKTKTRPAASTKTASRRGKGRASRT", "values": [{"measurement": "Interaction with Mer2 (yeast two-hybrid)", "setting": "Mer2 [6]", "result": "abolished the interaction with Mer2"}]}]}
